Laboratory results as given in US20240000950A1, “THERAPEUTIC CURE-PRO COMPOUNDS FOR TARGETED DEGRADATION OF BET DOMAIN PROTEINS, AND METHODS OF MAKING AND USING THEM” (CORNELL UNIVERSITY, priority 2020, published 2024).
“Also recorded” adds a separate entry of the source.

Tests used:
[1] = molecular target: T1, BRD4 (Homo sapiens, UniProt O60885); assay: CURE-PRO-mediated BRD4 degradation in HeLa cells, Western blot; assay type: cell-based; design: endogenous in cells; host or cells: HeLa; conditions: 24 h
Experimental: (§1) All cell lines were purchased from ATCC or DSMZ and grown at 37° C. with 5% C02. Human HeLa cells were cultured in complete growth medium (Dulbecco's modified Eagle's medium (DMEM) supplemented with 10% FBS); MCF7 cells were cultured in complete growth medium (Dulbecco's modified Eagle's medium (DMEM) supplemented with 10% FBS and 0.01 mg/ml human recombinant insulin (Sigma Aldrich); Namalwa and MOLM-13 cells were cultured in complete growth medium (RPMI 1640 medium supplemented with 10% FBS); MV-4-11 were cultured in complete growth medium (Iscove's Modified Dulbecco's medium, supplemented with 10% FBS); HCT116 cells were cultured in complete growth medium (McCoy's 5a Medium supplemented with 10% FBS). For cellular degradation of BRD4 studies, cells were seeded in a 12-well plate at 70-80% confluency, allowed to attach overnight, and incubated with the indicated compounds for the indicated time. When indicated, a 15-minute pretreatment with 10 μM pomalidomide, 10 μM VHL298, 10 μM Nutlin3a, 1 μM MG-132 or 1 μM Carfilzomib was performed before the addition of CURE-PROs. For washout studies, after CURE-PRO treatment, media was aspirated and incubated with complete medium for the indicated time before lysis.
(§2) Anti-BRD4 (13440, 1:1,000 dilution for Western Blot and 1:25 dilution for ProteinSimple); Anti-BRD2 (5848 1:1,000 dilution for Western Blot and 1:25 dilution for ProteinSimple); β-Actin (3700, 1:2,000 dilution for Western Blot), β-Actin (4970, 1:50 dilution for ProteinSimple) anti-mouse IgG-HRP, and anti-rabbit IgG-HRP antibodies were purchased Cell Signaling Technology. Anti-GAPDH (600-401-A33, 1:100 dilution for ProteinSimple) was purchased from Rockland Immunochemicals, Inc. Anti-BRD3 (sc-81202, 1:200 dilution for Western Blot) was purchased from Santa Cruz Biotechnology.
HeLa, MCF7, or HCT116 cells (2.5-3×10^6) were treated for 24 hours with the indicated compounds solubilized in DMSO. The cells were washed in ice-cold PBS and were then lysed in RIPA lysis buffer (150 mM NaCl, 5 mM EDTA, 1% NP-40, 0.5% sodium deoxycholate, 0.1% SDS, 50 mM Tris, pH 8.0) with Roche protease inhibitor complete cocktail and phosphatase inhibitors (10 mM sodium fluoride, 10 mM sodium pyrophosphate, 1 mM sodium orthovanadate and 20 mM β-glycerophosphate). The total protein concentrations were determined by Bradford Protein Assay and 10-20 μg of protein was loaded onto 4-15% Tris-Glycine gradient gels (Biorad). After standard gel electrophoresis, the separated proteins were transferred to PVDF membrane by wet transfer. The immunoblots were then blocked for 1 hour in 5% skim milk in TBST or 5% BSA in TBST, according to manufacturer's instructions, before an overnight incubation at 4° C. with indicated antibodies and membranes. Membranes were then incubated with the appropriate horseradish peroxidase-conjugated secondary antibodies (1:5,000 dilution) for 1 h at room temperature and the bands were visualized using the Clarity Max Western ECL Substrate (Biorad) and the ChemiDoc Imaging System (Biorad). Signal was detected with ECL Western Blotting Substrate (Pierce) and X-ray film processed with a Konica SRX-101 X-ray film processor or captured by Bio-Rad's Chemidoc Imaging system.
HeLa cells (2.5×10^6) were treated for 24 hours with the sample compounds solubilized in DMSO. Compounds were added at 1-10 μM each. Standardized protein samples were electrophoresed and imaged as described in the immunoblotting description above. FIGS. 6-18 depicts the CURE-PRO-mediated BRD4 degradation for BRD monomers (JQ1 derivatives comprising of catechol linkers), and CRBN ligands, 8048 and 8049 (pomalidomide derivatives comprising boronic acid linkers) combined in a 1:1 ratio.
HeLa cells (2.5×10^6) were treated for 24 hours with the compounds solubilized in DMSO. The compounds were added at 10 μM each. Standardized protein samples were electrophoresed and imaged as described in the immunoblotting section above. […]

[2] = system: Namalwa cells; assay: CellTiter-Glo cell viability, Namalwa cells; assay type: cell-based; conditions: 72 h, 10 nM-10 μM, co-dosed 1:1 with CRBN ligand 8047, compared to monomer alone
Experimental: as §1, with “When indicated, a 15-minute pretreatment with 10 μM pomalidomide, 10 μM VHL298, 10 μM Nutlin3a, 1 μM MG-132 or 1 μM Carfilzomib was performed before the addition of CURE-PROs. For washout studies, after CURE-PRO treatment, media was aspirated and incubated with complete medium for the indicated time before lysis.” left out
CellTiter-Glo® 2.0 Cell Viability Assay (Promega) was carried out following the manufacturer's recommendations. […] After a 72 h incubation, 100 ul of the CellTiter-Glo® substrate was added per well and luminescence was read on a Spectramax M5 (Molecular Devices). […]
Namalwa cells (1×104) were treated for 72 hours with the compounds solubilized in DMSO. […] Cellular viability was determined using the CellTiter-Glo® Luminescent Cell Viability Assay (Promega) described above. […]

[3] = molecular target: T1, BRD4; assay: CURE-PRO-mediated BRD4 degradation in HeLa cells, WES capillary electrophoresis (ProteinSimple); assay type: cell-based; design: endogenous in cells; host or cells: HeLa; conditions: 4-24 h, 10 μM each, co-dosed with CRBN ligand 8047, washed after 4 h
Experimental: as §1, §2
WES Simple analysis was performed on WES system (ProteinSimple-Biotechne) according to the manufacturer's instructions. Total protein concentrations of cell lysates were determined by the Pierce BCA kit (Thermo Fisher). 3 μL of 0.3 μg/uL of the protein lysate was loaded onto a 12- to 230-kDa WES assay plate (ProteinSimple) where 300 nL sample was withdrawn through a capillary, subjected to electrophoretic separation of proteins by size, and followed by the simultaneous, HRP-based detection of proteins using the Anti-Rabbit Detection Module (Proteinsimple: #DM-001). The electropherograms were checked then the automatic peak detection was manually corrected if it was required.
HeLa cells (2.5×10^6) were treated for 4-24 hours with the compounds solubilized in DMSO. After 4 hours, indicated points were washed and cells were left in full growth media. Compounds were added at 10 μM each. […]

[4] = molecular target: T1, BRD4; assay: Summary of E3 ligase directed degradation of BRD4, estimated from Western Blot or WES (Tables 1-6); assay type: cell-based; design: endogenous in cells; host or cells: HeLa, MCF7 or HCT116
Method in brief: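 HeLa, MCF7 or HCT116 cells treated 24 h with compounds in DMSO, lysed in RIPA buffer; BRD4 levels read by Western blot (ECL detection) or capillary WES with HRP detection. Check mark denotes 30% to 70% or higher protein degradation.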

[5] = system: SLC19A1; assay: Suppression of the c-MYC downstream target gene SLC19A1, RT-PCR in HeLa cells; assay type: cell-based, Human; conditions: 24 h, 10 μM each
Experimental: The suppression of the expression of the downstream c-MYC target, SLC19A1, was measured by RT-PCR using Power SYBR® Green Cells-to-Ct™ Kit (Life Technologies). Adherent cells were plated on 96 well plates at 5,000 cells per well were treated for 24 h with monomer compounds and compounds capable of reversible interactions (1 nM-100 μM). Cells were subsequently washed in ice-cold PBS processed according to the manufacturer's instructions. Quantitative real-time PCR was performed using a ViiA™ 7 Real-time PCR System (Applied Biosystems, Foster City, CA, USA). GAPDH and ACTB served as internal controls. The primers used were (5′-3′): GAPDH-F: AGCCACATCGCTCAGACAC (SEQ ID NO:9), GAPDH-R: GCCCAATACGACCAAATCC (SEQ ID NO:10), ACTB-F: CCAACCGCGAGAAGATGA (SEQ ID NO:11), ACTB-R: […] (SEQ ID NO:12), SLC19A1-F: […] (SEQ ID NO:13), SLC19A1-R: […] (SEQ ID NO:14).
HeLa cells (1×104) were treated for 24 hours in 96 well plates with the compounds solubilized in DMSO. Compounds were added at 10 μM each and RNA expression measured by the Cells-to Ct method described above (Thermofisher).

[6] = system: MV-4-11 cells; assay: CellTiter-Glo cell viability, MV-4-11 cells; assay type: cell-based; conditions: 1 nM-100 μM, cotreated 1:1 with CRBN ligand 8049
Experimental: as §1
CellTiter-Glo® 2.0 Cell Viability Assay (Promega) was carried out following the manufacturer's recommendations. Cells were seeded at a density of 1000 cells/well in a white 96 well plates (Corning, #3917) in a total volume of 100 μl with respective monomers, combinations of BRD ligands together with E3 ligase ligands or vehicle control treatment. After a 72 h incubation, 100 ul of the CellTiter-Glo® substrate was added per well and luminescence was read on a Spectramax M5 (Molecular Devices). Dose-response curves were generated using Graphpad Prism software.
MV-4-11 cells (5×104) were treated for 24 hours with the sample compounds solubilized in DMSO. The compounds were added at 1 nM-100 μM each. Cellular viability was determined using the CellTiter-Glo® Luminescent Cell Viability Assay (Promega) described above. FIGS. 19-22 depict the CURE-PRO-mediated loss of cellular viability for BRD monomers (JQ1 derivatives comprising of catechol linkers), and CRBN ligand, 8049 (pomalidomide derivatives comprising boronic acid linkers) combined in a 1:1 ratio.
MV-4-11 cells (1×104) were treated for 72 hours with the compounds solubilized in DMSO. Compounds were added at 10 nM-100 μM each. Cellular viability was determined using the CellTiter-Glo® Luminescent Cell Viability Assay (Promega) described above. FIGS. 47-54 depict the CURE-PRO-mediated loss of cellular viability for BRD monomers (JQ1 derivatives comprising of boronic acid linkers), and CRBN ligands, 8046, 8047, and 8066 (pomalidomide derivatives comprising diol linkers) combined in a 1:1 ratio.

[7] = molecular target: T1, BRD4; assay: BRD protein family degradation in HCT116 cells with MDM2 ligands, Western blot: BRD4; assay type: cell-based; design: endogenous in cells; host or cells: HeLa, MCF7 or HCT116; conditions: 24 h, with MDM2 ligands 8310 / 8312
Experimental: as §1, with “When indicated, a 15-minute pretreatment with 10 μM pomalidomide, 10 μM VHL298, 10 μM Nutlin3a, 1 μM MG-132 or 1 μM Carfilzomib was performed before the addition of CURE-PROs. For washout studies, after CURE-PRO treatment, media was aspirated and incubated with complete medium for the indicated time before lysis.” left out
HeLa, MCF7, or HCT116 cells (2.5-3×10^6) were treated for 24 hours with the indicated compounds solubilized in DMSO. […] The total protein concentrations were determined by Bradford Protein Assay and 10-20 μg of protein was loaded onto 4-15% Tris-Glycine gradient gels (Biorad). […] Signal was detected with ECL Western Blotting Substrate (Pierce) and X-ray film processed with a Konica SRX-101 X-ray film processor or captured by Bio-Rad's Chemidoc Imaging system. […]

SMILES | BRD4 degradation with pomalidomide and the BRD ligand (no 8047) ([1]; 10 μM) | BRD4 degradation after preincubation with pomalidomide ([1]; 10 μM, 1:1 with CRBN ligand 8047, pomalidomide preincubated 15 min at equimolar concentration) | BRD4 degradation ([1]; BRD ligand (monomer) alone) | loss of cell viability (CellTiter-Glo) [2] | BRD4 degradation, time dependence and washout [3] | Degradation of BRD4, combination with CRBN ligand [drawing 421] ([4]; Table 1, CRBN ligand drawn as drawing 421 (by the text apparently 8047)) | suppression of SLC19A1 expression ([5]; with MDM2 ligand 8310) | suppression of SLC19A1 expression ([5]; with MDM2 ligand 8312) | toxicity / loss of cellular viability (CellTiter-Glo) [6] | Degradation of BRD4, combination with MDM2 ligand [drawing 463] ([4]; Table 5, aryl-boronic acid-containing MDM2 ligand drawn as drawing 463 (apparently 8310)) | Degradation of BRD4, combination with MDM2 ligand [drawing 464] ([4]; Table 5, aryl-boronic acid-containing MDM2 ligand drawn as drawing 464 (apparently 8312)) | selectivity of degradation within the BRD protein family [7]
CCNC(=O)C[C@@H]1N=C(c2ccc(Cl)cc2)c2cc(-c3cccc(B(O)O)c3)ccc2-n2c(C)nnc21 [BRD-E72, (3-((4S)-6-(4-chlorophenyl)-4-(2-(ethylamino)-2-oxoethyl)-1-methyl-4H-benzo[f][1,2,4]triazolo[4,3-a][1,4]diazepin-8-yl)phenyl)boronic acid] | failed to induce BRD4 degradation | inhibition of CURE-PRO-mediated BRD4 degradation | no change in expression is observed | the dose-response curves shifted towards the left; also recorded: marked loss in cell viability | marked BRD4 degradation after 4 h with sustained degradation for up to 8 h after drugs are washed out | ✓ (A black check mark indicates efficacy of 30% to 70% or higher protein degradation) | – | – | – | – | – | –
CCNC(=O)C[C@@H]1N=C(c2ccc(Cl)cc2)c2cc(OCCNC(=O)c3cccc(O)c3O)ccc2-n2c(C)nnc21 [BRD-N25] | – | – | – | – | – | – | a rightward shift in the curve and an increase in the Ct values | a rightward shift in the curve and an increase in the Ct values | a concentration-dependent loss in cellular viability was observed; also recorded: increased toxicity | ✓ (A black check mark indicates efficacy of 30% to 70% or higher protein degradation) | ✓ (A black check mark indicates efficacy of 30% to 70% or higher protein degradation) | some selectivity for BRD3 and BRD4 over BRD2 for 8310
